Structures are written as SMILES.

One series in a line: Neat solution stability. In kind it is physicochemical. As to conditions: 10 μM, 37° C. The procedure:
(§1) Human and mouse liver microsomes and NADPH regenerating system solutions were purchased from Corning Life Sciences (Tewsbury, MA). Human and mouse K2EDTA was purchased from BioIVT (Westbury, NY). Metabolic studies in liver microsomes (0.125 mg/mL) were conducted in 1× phosphate buffered saline (pH 7.4), NADPH-generating system, and 10 μM of RA475 in a final volume of 250 μl. An incubation mixture with and without NADPH-generating system as well as a neat solution without microsomes and NADPH-generating system were prepared. RA475 was added at the same concentration level into human and mouse EDTA plasma. All reactions were initiated with the addition of RA475. Incubations were performed in glass tubes maintained at 37° C. in a shaker bath. At 0, 30, and 60 minutes, 10 μL aliquots were sampled from the reaction mixture and 0.5 mL of acetonitrile containing internal standard (Up284) was added to each samples. Samples were vortex-mixed and underwent centrifugation for 5 min at 1430×g. A 10 μL aliquot of the supernatant was injected onto the LC-MS instrument for qualitative analysis using a temperature-controlled autosampling device operating at 5° C. Chromatographic analysis was performed using a Waters Acquity™ Ultra Performance LC. […] The mobile phase used for the chromatographic separation was composed of water (mobile phase A) and acetonitrile (mobile phase B) containing 0.1% (v/v) formic acid with a flow rate of 0.3 mL/min. The initial mobile phase composition was 80% mobile phase A and 20% mobile phase B. From 0.5 to 1 min, mobile phase B was increased linearly from 20% to 100%. From 1 to 3 min, mobile phase B was maintained at 100%. From 3.0 to 3.1 min, the gradient decreased to 20% mobile phase B and the conditions were maintained until 4.1 min to re-equilibrate the column for the next injection. The column effluent was monitored using an AB Sciex 5500 triple quadrupole mass spectrometer. The instrument was equipped with an electrospray interface, operated in a positive mode and controlled by the Analyst v1.6 software. For the stability study, the mass spectrometer was programmed to monitor the following MRM transition 408.2→366.1 for RA475 and 366.2→155.8 for UP284 (internal standard). Results were assessed qualitatively comparing the average area ratio of RA475 at 0 hr to area ratio at 30 and 60 minutes for both mouse and human liver microsomes. RA475 was not analyzed for metabolites due to the concentration of RA475 not decreasing.

Series [1] has as its system 4UbFL reporter in leg muscle of CD-1 mice. The series is described as follows: On-target activity in vivo using 4UbFL. As to conditions: 40 mg/Kg single i.p. dose. Further details: species or system mouse. The procedure:
A patch was shaved of hair on one leg of CD-1 mice, and 10 μg 4UbFL plasmid in 20 μL of PBS was injected into the quadriceps femoralis muscle followed immediately by injection of the 2 Needle Array to 5 mm depth encompassing the injection site and square wave electroporation (ElectroSquarePorator 833, BTX-2 Needle array 5 mm gap, Harvard apparatus) delivered as eight pulses at 106V for 20 ms with 200 ms intervals. One day post electroporation, mice were anesthetized with isoflurane, injected i.p. with luciferin (0.3 mg in 100 μL water) and optical imaging was performed to determine basal level luciferase expression. Images were acquired for 10 min with a Xenogen IVIS 200 (Caliper, Hopkinton, MA). Equally sized areas were analyzed using Living Image 2.20 software. Mice were imaged weekly during treatment. Mice were randomized into three groups (n=5) and treated i.p. once with Vehicle (25% (w/v) β-Hydroxypropylcyclodextrin in water, Sigma Aldrich), RA475 (40 mg/Kg) and Up284 (40 mg/Kg) and mice were imaged again at 4 hr, 24 hr, 48 hr, 72 hr and 96 hr later.
To assess on-target activity in vivo, 4UbFL plasmid was injected into the muscle of one leg of CD-1 mice followed by electroporation. Luciferin was injected i.p. 24 hr later and the mice were tagged and imaged using an IVIS200 to visualize their basal bioluminescence. The mice were then immediately randomized to 3 groups and treated with vehicle alone (25% β-hydroxypropylcyclodextrin-water solution), RA475 (40 mg/Kg) and Up284 (40 mg/Kg) administered as a single i.p. dose. To examine the on-target activity, the mice were imaged again at 4 hr, 24 hr, 48 hr, 72 hr and 96 hr later.

A short description of series [2]: Microsomal stability, mouse liver microsomes. The series is classed as in vitro ADME. How it is done:
as §1

Series [3] can be described thus: Plasma stability, human EDTA plasma. As to conditions: 37° C. In kind it is in vitro ADME. The procedure: as §1
The nature of series [4]: Plasma stability, mouse EDTA plasma. As to conditions: 37° C. In kind it is in vitro ADME. How it is done:
as §1

Series [5] has as its system ES2 cells stably expressing 4UbFL. The series is described as follows: In vitro 4UbFL assay, ES2 cells. In kind it is cell-based. As to conditions: ES2-4UbFL cells, two-fold dilution series, 4 hr. The procedure: Sub-confluent cultures of ES2 cells stably expressing 4UbFL were seeded at 10,000 cells/well in 96-well microtiter plates. At 18 hr post transfection, cells were treated with compounds or vehicle (DMSO) at the doses indicated. After a 4 hr incubation, the cells were lysed and the luciferase activity in each cell lysate was determined with a luciferase assay kit (Promega) according to the manufacturer's instructions. Bioluminescence was measured by using a luminometer (Glomax Multidetection system, Promega).
To measure RA475 on-target activity in live cells, the inventors used an expression vector for the reporter gene 4UbFL in which the gene for firefly luciferase (FL) is inserted in-frame 3′ to four copies of ubiquitin (PMID: 12819780). […] Proteasome inhibition stabilizes 4UbFL and thus increases the bioluminescence signal upon addition of luciferin substrate, and this can be measured by a luminometer (for cells) or visualized by IVIS imaging (for mice).
ES2 cells stably transfected with 4UbFL expression plasmid (ES2-4UbFL) were plated in a 96 well microtiter plate and 18 hr later treated with DMSO only as a negative control, or two-fold dilution series of either Up284 or RA475. After 4 hr medium was removed and the cells were lysed using luciferase lysis buffer and bioluminescence was measured using a luminometer after the addition of luciferin substrate.

`N#Cc1ccc(/C=C2/C(=O)/C(=C/c3ccc(C#N)cc3)C23CCNCC3)cc1` [Up284, reference compound]: the “% Drug Remaining” value in the series “Neat solution stability” (0 minutes) amounted to 100%; in the series “Neat solution stability” (30 minutes), 86%; in “Neat solution stability” (60 minutes), 78%; in series [2] (NADPH Neg, 0 minutes) it was 100%; in series [2] (NADPH Neg, 30 minutes), 60%; in series [2] (NADPH Neg, 60 minutes) it was 51%. Also, the “% Drug Remaining” value in series [2] (NADPH Pos, 0 minutes) stood at 100%; in series [2] (NADPH Pos, 30 minutes), 45%; in series [2] (NADPH Pos, 60 minutes), 38%; in series [3] (0 minutes) it was 100%; in series [3] (30 minutes) it was 100%; in series [3] (60 minutes), 90%. In addition, the “% Drug Remaining” value in series [4] (0 minutes) stood at 100%; in series [4] (30 minutes) it was 84%; in series [4] (60 minutes), 94%. Also, the “increase in bioluminescence at the site of electroporation over baseline” value in series [1] (24 hr after administration) is approximately 3 fold. Besides, the “bioluminescent signal of 4UbFL reporter” value in series [5] is on record as “significantly increased”.
For the compound `Cl.Cl.N#Cc1ccc(/C=C2/C(=O)/C(=C/c3ccc(C#N)cc3)C23CCN(C(=N)N)CC3)cc1` [RA475], the “% Drug Remaining” value in the series “Neat solution stability” (0 minutes) is listed as 100%; in the series “Neat solution stability” (30 minutes) it was 108%; in the series “Neat solution stability” (60 minutes) it was 111%; in series [2] (NADPH Neg, 0 minutes), 100%; in series [2] (NADPH Neg, 30 minutes), 90%; in series [2] (NADPH Neg, 60 minutes) it was 108%. The “% Drug Remaining” value in series [2] (NADPH Pos, 0 minutes) is on record as 100%; in series [2] (NADPH Pos, 30 minutes), 93%; in series [2] (NADPH Pos, 60 minutes), 98%; in series [3] (0 minutes) it was 100%; in series [3] (30 minutes), 108%; in series [3] (60 minutes) it was 107%. In addition, the “% Drug Remaining” value in series [4] (0 minutes) came out at 100%; in series [4] (30 minutes), 109%; in series [4] (60 minutes), 109%. The results for the “increase in bioluminescence at the site of electroporation over baseline” value in series [1] (4 hr after administration) and in series [1] (24 hr after administration) were 24 fold and 6 fold, respectively. The “bioluminescent signal of 4UbFL reporter” value in series [5] was “significantly increased”.
